Test results: ChEMBL document CHEMBL1142372, “Design, synthesis, and structure-activity relationship studies of 4-quinolinyl- and 9-acrydinylhydrazones as potent antimalarial agents” (J Med Chem, 2008)
pEC50, pIC50: −log10 of the molar value. Activity calls are given as the source filed them. No cut-off for these calls is given here.

Tests used:
Plasmodium falciparum [1] = assay: Antiplasmodial activity against chloroquine-sensitive Plasmodium falciparum 3D7 by [3H]hypoxanthine incorporation; assay type: functional, organism-based
Plasmodium falciparum [2] = assay: Antiplasmodial activity against chloroquine-sensitive Plasmodium falciparum D10 by [3H]hypoxanthine incorporation; assay type: functional, organism-based
Plasmodium falciparum [3] = assay: Antiplasmodial activity against chloroquine-resistant Plasmodium falciparum W2 by [3H]hypoxanthine incorporation; assay type: functional, organism-based
Plasmodium falciparum [4] = assay: Antiplasmodial activity against chloroquine-resistant Plasmodium falciparum K1 by [3H]hypoxanthine incorporation; assay type: functional, organism-based
KB = assay: Cytotoxicity against human KB cells; assay type: functional; conditions: read-out: ED50 (the source's name)
[5] = target: T1, Histidine-rich protein PFHRP-II (Plasmodium falciparum) (UniProt P05227); assay: Inhibition of beta-hematin formation by BHIA; assay type: functional
T1 sequence (whole entry): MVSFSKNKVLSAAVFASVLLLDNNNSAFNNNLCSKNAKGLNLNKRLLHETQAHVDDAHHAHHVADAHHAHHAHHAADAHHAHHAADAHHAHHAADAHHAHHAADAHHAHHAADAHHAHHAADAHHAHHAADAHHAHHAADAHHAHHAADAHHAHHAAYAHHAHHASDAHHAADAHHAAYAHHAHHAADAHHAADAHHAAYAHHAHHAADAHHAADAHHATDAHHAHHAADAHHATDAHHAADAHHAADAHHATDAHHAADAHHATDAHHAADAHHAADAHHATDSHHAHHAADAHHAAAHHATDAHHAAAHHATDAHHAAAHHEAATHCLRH

Mus musculus [6] = assay: Survival of Plasmodium Berghei ANKA infected BALB/c mice (Mus musculus) at 10 mg/kg, intraperitoneally; assay type: functional, organism-based; design: dose 10 mg/kg
Plasmodium berghei [7] = assay: Reduced parasitemia in Plasmodium berghei ANKA infected BALB/c mice (Mus musculus) at 10 mg/kg intraperitoneal dose after 4 days; assay type: functional; design: scale not given: the % may be the effect or the level left
Mus musculus [8] = assay: Survival of Plasmodium Berghei ANKA infected BALB/c mice (Mus musculus) at 30 mg/kg, intraperitoneally; assay type: functional, organism-based; design: dose 30 mg/kg
Plasmodium berghei [9] = assay: Antimalarial activity against Plasmodium berghei ANKA infected BALB/c mice (Mus musculus) as reduced parasitaemia at 30 mg/kg intraperitoneal dose after 4 days; assay type: functional; design: scale not given: the % may be the effect or the level left

Row | SMILES | pIC50 (Plasmodium falciparum [1]) | pIC50 (Plasmodium falciparum [2]) | pIC50 (Plasmodium falciparum [3]) | pIC50 (Plasmodium falciparum [4]) | pEC50 (KB) | Activity [5] | Activity (Mus musculus [6]) | Activity (Plasmodium berghei [7]) | Activity (Mus musculus [8]) | Activity (Plasmodium berghei [9])
1 | CCN(CC)c1ccc(/C=N/Nc2ccnc3ccc(OC)cc23)cc1 | 7.64 | 6.85 | 6.78 | 6.76 |  |  |  |  |  | 
2 | COc1ccc(/C=N/Nc2cc(C)nc3ccc(OC)cc23)cc1 | 7.51 | 6.99 | 6.82 | 7.21 |  |  |  |  |  | 
3 | COc1ccc2nccc(N/N=C/c3ccc(N4CCCC4)cc3)c2c1 | 6.39 | 6.94 | 6.73 | 6.34 |  |  |  |  |  | 
4 | Clc1ccc2c(N/N=C/c3ccc(N4CCCC4)cc3)ccnc2c1 | 6.07 | 6.72 | 6.72 | 6.37 |  |  |  |  |  | 
5 | Cc1cc(N/N=C/c2ccc3c(c2)OCO3)c2ccc(Cl)cc2n1 |  | 6.91 | 6.55 |  |  |  |  |  |  | 
6 | Cc1ccc(S(=O)(=O)NNc2ccnc3cc(Cl)ccc23)cc1 | 5.52 | 5.23 | 5.30 | 5.07 |  |  |  |  |  | 
7 | Cc1noc(C)c1/C=N/Nc1ccnc2cc(Cl)ccc12 | 6.90 | 6.46 | 6.29 | 5.67 | 3.77 |  |  |  |  | 
8 | COc1ccc(/C=N/Nc2c3c(nc4cc(Cl)ccc24)CCCC3)cc1 | 6.03 | 6.12 | 5.88 | 5.58 |  |  |  |  |  | 
9 | CCN(CC)CCCC(C)Nc1ccnc2cc(Cl)ccc12 (configuration not stated) [CHLOROQUINE] |  |  |  |  | 3.59 | Dose-dependent effect | Active | 98% |  | 
10 | O=C(NNc1ccnc2cc(Cl)ccc12)c1c[nH]cn1 | 5.05 | < 5.00 | < 5.00 | < 5.00 |  |  |  |  |  | 
11 | COc1ccc2nc3cc(Cl)ccc3c(N/N=C/c3ncc[nH]3)c2c1 |  |  |  |  | 5.29 |  |  |  | Active | 40%
12 | Clc1ccc2c(N/N=C/c3ccc(CN4CCCC4)cc3)ccnc2c1 |  |  |  |  | 4.71 | Dose-dependent effect |  |  | Active | 83%
13 | COc1ccc2nccc(N/N=C/c3ccc4ccccc4n3)c2c1 | 6.90 | 7.14 | 7.02 | 6.80 |  |  |  |  |  | 
14 | Clc1ccc2c(N/N=C/c3ccncc3)ccnc2c1 |  | 6.24 | 6.20 |  |  |  |  |  |  | 
15 | C(=N\Nc1ccnc2cc3c(cc12)OCO3)/c1ccc(CN2CCCC2)cc1 | 7.57 | 7.45 | 7.33 | 7.24 |  |  |  |  |  | 
16 | COc1ccc(/C=N/Nc2ccnc3c(OC)cccc23)cc1 | 6.49 | 6.15 | 6.04 | 6.11 |  |  |  |  |  | 
17 | CCOc1ccc2c(N/N=C/c3ccc(OC)cc3)cc(C)nc2c1 | 6.09 | 6.67 | 6.63 | 6.27 |  |  |  |  |  | 
18 | Clc1ccc2c(N/N=C/c3ccc4c(c3)OCO4)ccnc2c1 | 6.40 | 6.74 | 6.69 | 7.51 |  |  |  |  |  | 
19 | COc1cccc2c(N/N=C/c3ccc4ccccc4n3)cc(C)nc12 | 6.10 | 6.39 | 6.49 | 6.93 |  |  |  |  |  | 
20 | Clc1ccc2c(N/N=C/c3cnc[nH]3)ccnc2c1 | 6.82 | 6.34 | 6.85 | 6.20 | 4.54 |  |  |  |  | 
21 | Cc1cccc(/C=N/Nc2cc(C)nc3cc(Cl)ccc23)n1 |  | 5.93 | 5.88 |  |  |  |  |  |  | 
22 | COc1ccc(/C=N/Nc2ccnc3ccc(OC)cc23)cc1 | 7.19 |  |  |  |  |  |  |  |  | 38%
23 | COc1cccc(/C=N/Nc2cc(C)nc3cc4c(cc23)OCO4)c1 | 5.30 | 6.71 | 6.64 |  |  |  |  |  |  | 
24 | COc1ccc2c(N/N=C/c3ccc4ccccc4n3)ccnc2c1 |  | 6.97 | 6.85 | 6.67 |  |  |  |  |  | 

Row | SMILES | pIC50 (Plasmodium falciparum [1]) | pIC50 (Plasmodium falciparum [2]) | pIC50 (Plasmodium falciparum [3]) | pIC50 (Plasmodium falciparum [4]) | pEC50 (KB) | Activity [5] | Activity (Mus musculus [6]) | Activity (Plasmodium berghei [7]) | Activity (Mus musculus [8]) | Activity (Plasmodium berghei [9])
25 | Oc1cc(/C=N/Nc2ccnc3cc(Cl)ccc23)ccc1CN1CCCC1 | 9.05 | 7.67 | 7.72 | 7.40 | 3.82 |  |  |  | Active | 71%
26 | Clc1ccc2c(N/N=C/c3ccco3)ccnc2c1 | 6.77 | 6.02 | 5.86 | 6.08 | 4.70 | Dose-dependent effect |  |  |  | 
27 | COc1cc2ccccc2cc1/C=N/Nc1ccnc2cc(Cl)ccc12 | 7.50 | 6.84 | 6.77 | 7.20 |  |  |  |  |  | 
28 | Clc1ccc2c(N/N=C/c3cccs3)ccnc2c1 | 6.78 | 6.30 | 6.07 | 6.24 | 4.98 |  |  |  |  | 
29 | Clc1ccc2c(N/N=C/c3cccnc3)ccnc2c1 |  | 6.22 | 6.09 |  |  |  |  |  |  | 
30 | Clc1ccc2c(N/N=C/c3ncc[nH]3)ccnc2c1 | 8.23 | 7.19 | 7.63 | 7.50 | 4.71 | Dose-dependent effect |  |  |  | 
31 | Cn1ccnc1/C=N/Nc1ccnc2cc(Cl)ccc12 | 7.21 | 6.71 | 7.06 | 6.57 | 4.77 |  |  |  |  | 
32 | COc1ccc2nc3cc(Cl)ccc3c(N/N=C/c3ccc(CN4CCCC4)cc3)c2c1 |  |  |  |  |  |  |  |  | Active | 19%
33 | O=C(NNc1ccnc2cc(Cl)ccc12)c1ncc[nH]1 | 5.26 | 5.19 | < 5.00 | < 5.00 |  |  |  |  |  | 
34 | COc1ccc(/C=N/Nc2c3c(nc4ccccc24)CCCC3)cc1 |  | 6.03 | 5.63 |  |  |  |  |  |  | 
35 | CN(C)c1ccc(/C=N/Nc2ccnc3cc(Cl)ccc23)cc1 | 6.51 | 6.49 | 6.42 | 5.94 |  |  |  |  |  | 
36 | COc1ccc2nccc(N/N=C/c3ccc4c(c3)OCO4)c2c1 |  | 6.88 | 6.71 |  |  |  |  |  |  | 
37 | COc1ccc2nc(C)cc(N/N=C/c3ccc4c(c3)OCO4)c2c1 | 6.29 | 6.88 | 6.74 | 6.83 |  |  |  |  |  | 
38 | C(=N\Nc1c2c(nc3ccccc13)CCCC2)/c1ccc2c(c1)OCO2 |  | 6.21 | 6.03 |  |  |  |  |  |  | 
39 | O=S(=O)(NNc1ccnc2cc(Cl)ccc12)c1cccc2ccccc12 | 5.67 | 5.37 | 5.60 | 6.22 |  |  |  |  |  | 
40 | Clc1ccc2c(N/N=C/c3ccc[nH]3)ccnc2c1 | 7.59 | 6.68 | 6.59 | 7.27 | 5.32 |  |  |  |  | 
41 | Cc1cccc(/C=N/Nc2ccnc3cc(Cl)ccc23)n1 |  | < 5.52 | 6.12 |  |  |  |  |  |  | 
42 | CCN(CC)c1ccc(/C=N/Nc2ccnc3c(OC)cccc23)cc1 | 6.69 | 6.35 | 6.10 | 6.90 |  |  |  |  |  | 
43 | CCN(CC)Cc1ccc(/C=N/Nc2ccnc3cc(Cl)ccc23)cc1 | 8.57 | 7.32 | 7.24 | 7.57 |  |  |  |  |  | 
44 | COc1ccc2nccc(N/N=C/c3ccc(CN4CCCC4)cc3)c2c1 | 7.78 | 7.61 | 7.00 | 7.06 |  |  |  |  |  | 
45 | Cn1cncc1/C=N/Nc1ccnc2cc(Cl)ccc12 | 7.31 | 6.76 | 6.60 | 6.41 | 4.13 |  |  |  |  | 
46 | FC(F)(F)c1ccc(-c2n[nH]cc2/C=N/Nc2ccnc3cc(Cl)ccc23)cc1 | 8.30 | 6.73 | 6.59 | 7.40 | 5.92 | Dose-dependent effect |  |  |  | 
47 | CCN(CC)c1ccc(/C=N/Nc2ccnc3cc(Cl)ccc23)cc1 | 6.52 | 6.76 | 6.60 |  |  |  |  |  |  | 
48 | CCN(CC)c1ccc(/C=N/Nc2c3c(nc4ccccc24)CCCC3)cc1 | 5.97 | 6.01 | 5.83 |  |  |  |  |  |  | 
